Results published in patent US20070128669A1, “Serum-free expansion of cells in culture” (Institute for Chemical Genomics, priority 2005, published 2007).

Legend:
CBP/β-catenin complex = molecular target: T1, CBP/β-catenin complex (Mus musculus, UniProt P45481); test: Co-immunoprecipitation of β-catenin with CBP in P19 cells; format: cell-based; conditions: Wnt3a, 10 μM, 24 hours
T1 construct: endogenous in cells; host or cells: P19 cells (nuclear fraction)
Experimental: (§1) Co-immunoprecipitation of β-catenin with CBP or p300 in P19 cells. Co-immunoprecipitation was performed as described in (27). Briefly, P19 cells were treated with 10 μM ICG-001 or 10 μM IQ-1 (control DMSO was 0.025%) for 24 hours, after which they were washed and lysed […]. Nuclear fraction was isolated and precleared with antibodies to CBP(A-22) or p300(N-15). β-catenin was detected using a mouse monoclonal antibody (Becton Dickinson) at a dilution of 1:5000.

C2C12 myoblasts = test: Differentiation of C2C12 myoblasts in growth medium; format: cell-based; conditions: 10 μM in growth medium
Experimental: FIG. 12. FIG. 12 illustrates that differentiation of C2C12 myoblasts was induced by 10 μM ICG-001 in growth medium, similar to differentiation medium.

p300/β-catenin complex = test: Co-immunoprecipitation of β-catenin with p300 in P19 cells; format: cell-based; conditions: Wnt3a, 10 μM, 24 hours
Experimental: as §1

Stat3 signaling pathway = test: pSTAT3-TA-Luc luciferase reporter assay in ESCs; format: cell-based, mouse; conditions: 24 hours exposure
Experimental: Transfection and Luciferase assay. ESCs were cultured in 96-well cell culture dishes coated with a 0.1% aqueous gelatin solution and transfected with 0.2 μg/well of pSTAT3-TA-Luc (CLONTECH), using Lipofectamine 2000 (Invitrogen). After 6 hours, cells were washed and exposed to either IQ-1 at the indicated doses, or LIF, for 24 hours. Transfection efficiencies were normalized with pRL-null luciferase plasmid. Luciferase assays were performed with the DUAL-Luciferase Reporter Assay System (Promega).

[1] = system: Nanog gene expression in ESCs; test: Real-time RT-PCR for Nanog in feeder-free ESCs; format: cell-based, mouse; conditions: feeder-free ESCs; IQ-1 4 μg/ml or LIF 1000 U/ml, 21 hrs
Experimental: FIG. 2. […] Real-time RT-PCR for Nanog was performed. The control expression level of Nanog at day 0 was set at 1. FIG. 2B, removal of IQ-1 decreases Nanog gene expression in ESCs. IQ-1 was removed from ESCs which had been cultured under feeder-free system and in the presence of IQ-1 (4 μg/ml), for three days. At the end of this period, mRNA was isolated and real-time RT-PCR was performed to assay for Nanog gene expression. FIG. 2C, effects of IQ-1 were not mediated through Stat3 signaling pathway as judged by luciferase reporter assay. Feeder-free ESCs, transfected with the pSTAT3-TA-Luc reporter, were exposed to IQ-1 at the indicated doses, or LIF. All error bars represent mean±SD.
Real-time RT-PCR. Total RNA was isolated and reverse-transcribed using SuperScript III (Invitrogen). Real-time RT-PCR (Sybr Green; BioRad) was performed using with the gene-specific primers: […]

ESCs = test: Long term feeder-free culture of ESCs in serum-free (15% KSR) media; format: cell-based, mouse
Experimental: FIG. 7. […] ESCs were cultured in 15% KSR, 4 μg/ml of IQ-1 and 100 ng/ml Wnt3a. ESCs were passaged 2-3 times per week at 1×10^5-1×10^6 cells per 6 cm dish and cells were counted.
FIG. 8. […] AP activity of ESCs cultured for 7 days in IQ-1 containing media supplemented with 15% FCS or 15% KSR. […] (Error bars represent ±S.D.)
FIG. 9. […] Over the 42-day culture period, ESCs cultured in the media in the presence of IQ-1 and Wnt3a maintain expression of the pluripotency markers, (a) Nanog, (b) Oct3/4 and (c) Rex-1. The expression level on day 0 was set as 1.
Cell culture. ESCs, D3ES (ATCC CRL-1934) were maintained on Mitomycin C treated MEFs in mouse ESC medium containing DMEM (Invitrogen) supplemented with 15% FBS (Invitrogen), 0.1 mM MEM nonessential amino acids (Invitrogen), 0.1 mM 2-mercaptoethanol (Sigma), 2 mM L-glutamine (Invitrogen) and 1,000 U/ml LIF (CHEMICON). To remove MEFs, cells were collected by trypsinization and plated on gelatin-coated culture dishes for 20 min. Non-adherent cells consisting mainly of ESCs were replated on gelatin-coated culture dishes again. Non-adherent cells were used for further experiments. P19 cells were cultured according to conditions recommended by the ATCC. Cells were incubated at 37° C. in a 5% CO2 incubator. Purified Wnt3a was purchased (R&D Systems).

T1 sequence (P45481 2-2441 limits assumed, one chain of several): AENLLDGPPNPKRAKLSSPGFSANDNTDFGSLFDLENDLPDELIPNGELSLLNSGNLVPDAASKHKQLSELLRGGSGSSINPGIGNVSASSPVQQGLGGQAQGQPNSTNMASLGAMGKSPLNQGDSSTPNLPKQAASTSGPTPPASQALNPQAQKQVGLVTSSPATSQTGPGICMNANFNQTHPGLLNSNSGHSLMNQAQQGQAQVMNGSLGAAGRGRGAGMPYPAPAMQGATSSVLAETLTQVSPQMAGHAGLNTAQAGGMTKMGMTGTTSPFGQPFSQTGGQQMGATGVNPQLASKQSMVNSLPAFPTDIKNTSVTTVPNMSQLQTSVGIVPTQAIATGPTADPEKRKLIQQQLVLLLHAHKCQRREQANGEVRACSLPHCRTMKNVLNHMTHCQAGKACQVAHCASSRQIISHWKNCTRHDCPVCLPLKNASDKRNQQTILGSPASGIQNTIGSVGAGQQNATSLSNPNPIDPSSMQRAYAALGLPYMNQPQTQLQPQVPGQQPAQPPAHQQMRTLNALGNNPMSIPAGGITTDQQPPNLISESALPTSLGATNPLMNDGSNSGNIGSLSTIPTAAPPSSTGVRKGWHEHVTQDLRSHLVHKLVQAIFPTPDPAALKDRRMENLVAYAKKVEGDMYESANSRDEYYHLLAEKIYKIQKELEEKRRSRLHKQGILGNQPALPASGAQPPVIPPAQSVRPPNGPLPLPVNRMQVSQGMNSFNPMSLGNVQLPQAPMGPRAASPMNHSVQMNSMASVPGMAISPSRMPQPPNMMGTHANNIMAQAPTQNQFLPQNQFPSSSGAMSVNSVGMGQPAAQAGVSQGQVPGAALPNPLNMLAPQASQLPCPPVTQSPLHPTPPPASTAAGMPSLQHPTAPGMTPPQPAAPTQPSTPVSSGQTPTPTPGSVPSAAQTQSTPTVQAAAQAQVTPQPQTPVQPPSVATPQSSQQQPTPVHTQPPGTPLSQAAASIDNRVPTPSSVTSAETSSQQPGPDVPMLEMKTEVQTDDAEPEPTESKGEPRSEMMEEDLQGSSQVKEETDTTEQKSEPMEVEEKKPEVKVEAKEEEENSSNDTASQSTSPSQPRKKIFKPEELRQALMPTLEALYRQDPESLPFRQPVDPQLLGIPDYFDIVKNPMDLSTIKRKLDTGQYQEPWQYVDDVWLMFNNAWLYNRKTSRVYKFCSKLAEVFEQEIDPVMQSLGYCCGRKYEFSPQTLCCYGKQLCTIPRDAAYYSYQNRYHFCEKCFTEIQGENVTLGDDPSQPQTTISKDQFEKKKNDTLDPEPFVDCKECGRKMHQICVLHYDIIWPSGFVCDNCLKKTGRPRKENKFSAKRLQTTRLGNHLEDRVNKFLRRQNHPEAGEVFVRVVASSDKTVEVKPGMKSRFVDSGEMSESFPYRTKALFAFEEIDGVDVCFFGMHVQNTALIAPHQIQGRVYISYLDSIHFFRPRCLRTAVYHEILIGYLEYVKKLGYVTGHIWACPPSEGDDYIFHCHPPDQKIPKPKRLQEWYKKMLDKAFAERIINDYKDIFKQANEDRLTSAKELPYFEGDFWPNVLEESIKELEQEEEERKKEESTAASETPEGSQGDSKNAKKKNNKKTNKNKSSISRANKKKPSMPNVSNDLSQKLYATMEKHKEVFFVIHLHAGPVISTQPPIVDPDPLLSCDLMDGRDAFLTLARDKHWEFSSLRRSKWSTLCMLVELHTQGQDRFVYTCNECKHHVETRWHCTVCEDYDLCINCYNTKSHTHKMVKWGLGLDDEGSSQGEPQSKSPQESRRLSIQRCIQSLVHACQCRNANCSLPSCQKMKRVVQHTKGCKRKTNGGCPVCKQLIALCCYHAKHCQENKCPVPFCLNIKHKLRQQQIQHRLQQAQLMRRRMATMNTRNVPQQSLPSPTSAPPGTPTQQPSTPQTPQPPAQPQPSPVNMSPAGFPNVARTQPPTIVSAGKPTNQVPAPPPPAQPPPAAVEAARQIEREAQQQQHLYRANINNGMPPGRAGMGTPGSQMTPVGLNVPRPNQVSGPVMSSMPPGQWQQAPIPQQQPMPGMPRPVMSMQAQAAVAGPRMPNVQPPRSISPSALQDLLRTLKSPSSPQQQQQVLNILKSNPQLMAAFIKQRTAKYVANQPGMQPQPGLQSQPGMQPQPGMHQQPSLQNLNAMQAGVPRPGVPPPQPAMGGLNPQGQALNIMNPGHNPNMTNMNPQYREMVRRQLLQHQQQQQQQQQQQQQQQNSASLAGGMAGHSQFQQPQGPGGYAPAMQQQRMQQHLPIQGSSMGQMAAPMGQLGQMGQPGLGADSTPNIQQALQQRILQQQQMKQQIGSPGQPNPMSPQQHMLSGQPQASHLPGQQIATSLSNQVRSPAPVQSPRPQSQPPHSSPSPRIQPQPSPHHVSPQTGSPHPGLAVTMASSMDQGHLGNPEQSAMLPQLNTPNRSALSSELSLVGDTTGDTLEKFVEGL

Molecule: O=C1[C@H](Cc2ccc(O)cc2)N2C(=O)CCN(C(=O)NCc3ccccc3)[C@H]2CN1Cc1cccc2ccccc12 [ICG-001, reference compound]
- relative amount of β-catenin associated with CBP (CBP/β-catenin complex): at the expense of the CBP/β-catenin interaction
- differentiation of C2C12 myoblasts (C2C12 myoblasts): induced the differentiation of C2C12 myoblasts
- p300/β-catenin interaction (p300/β-catenin complex): significantly enhanced the p300/β-catenin interaction

Molecule: LIF: cytokine leukemia inhibitory factor (CHEMICON)
- Stat3/luciferase expression (Stat3 signaling pathway): elicited a significant response
- Nanog expression [1]: only slightly increased Nanog levels

B1: Wnt3a: purified Wnt3a protein purchased from R&D Systems (protein, UniProt P56704 19-352, looked up)
Protein Wnt-3a: SYPIWWSLAVGPQYSSLGSQPILCASIPGLVPKQLRFCRNYVEIMPSVAEGIKIGIQECQHQFRGRRWNCTTVHDSLAIFGPVLDKATRESAFVHAIASAGVAFAVTRSCAEGTAAICGCSSRHQGSPGKGWKWGGCSEDIEFGGMVSREFADARENRPDARSAMNRHNNEAGRQAIASHMHLKCKCHGLSGSCEVKTCWWSQPDFRAIGDFLKDKYDSASEMVVEKHRESRGWVETLRPRYTYFKVPTERDLVYYEASPNFCEPNPETGSFGTRDRTCNVSSHGIDGCDLLCCGRGHNARAERRREKCRCVFHWCCYVSCQECTRVYDVHTCK
- AP activity of ESCs on addition of Wnt3a to IQ-1 containing 15% KSR media (ESCs; 7 days, IQ-1 containing media, 15% KSR): increases AP activity
- ESC proliferation, Wnt3a alone (ESCs; KSR media): induced proliferation
- expression of stem cell markers Oct4, Nanog, Rex1, Wnt3a alone (ESCs; KSR media): not sufficient to maintain the expression
- maintenance of undifferentiated status of ESCs, agent alone (ESCs; KSR media, single agent): Neither Wnt3a nor IQ-1 alone was sufficient
